The subject of the test is PC3 cells. Put plainly: Cell uptake experiments with and without SR-B1 blocking by unlabeled rHDL. Format: cell-based. The note with it: for total uptake: PC-3 cells. As for the experimental part:
PC3 cells were harvested and diluted in fresh medium (1×10^5 cells/well, 0.5 mL) and then seeded in 24-well tissue culture plates. After 24 h, the medium was removed, and the cells were incubated with 100 μL/well of phosphate buffered saline (PBS) and the following treatments per well: 2 kBq of ^99mTcO4−, and 30 μL of 1 μg/μL of ^99mTc-rHDL, ^99mTc-Liposome, and ^99mTc-HYNIC-DA for 45 min at 37° C. Then, cells were rinsed two times with 0.5 mL of ice-cold PBS. These two washes were combined and represent the ^99mTcO4^−, ^99mTc-rHDL, ^99mTc-Liposome, and ^99mTc-HYNIC-DA not bounded to cells. Cells were washed with 1 mL of PBS and later were incubated twice with 0.5 mL of Glycine-HCl (50 mM, pH 2.8). The Glycine-HCl washes were combined, these washed recovered the ^99mTcO4^−, ^99mTc-rHDL, ^99mTc-Liposome, and ^99mTc-HYNIC-DA adhered or bounded to cell membrane. Cells were washed with 1 mL of PBS, and finally were washed twice with 0.5 mL of 1.0 M NaOH (lysed cells) to recover the ^99mTcO4^−, ^99mTc-rHDL, ^99mTc-Liposome, and ^99mTc-HYNIC-DA internalized in the cytoplasm (washes were combined). Radioactivity was measured in the initial PBS, Glycine-HCl and NaOH combined washes using a NaI(Tl) detector (NML Inc. USA). The initial activity of each treatment was taken to represent 100% of activity. In parallel, the nonspecific binding was determined using 30 μL of 60 μg/μL of unlabeled rHDL, which blocked SR-B1 receptors on PC3 cells.

Take `[O]=[99Tc](=[O])(=[O])[O-]` [^99m TcO4^−]: the total uptake is, setting by setting: (with SR-B1 blocking) 2.9%; (without SR-B1 blocking) 2.8%. Besides, the incorporation into cells result (control groups, data not shown) is recorded as “only marginal incorporation into cells”.

The record behind these values is patent publication US12208146B2, “Reconstituted HDL nanoparticles for delivery of radioactive agents and uses thereof” (UNIVERSITY OF NORTH TEXAS HEALTH SCIENCE CENTER, priority 2018, dated 2025).
